Data reported in patent US20020111274A1, “1-alkyl-3-[1-(substituted phenyl) benzotriazol-6-yl] uracils” (BASF Aktiengesellschaft, priority 2000, published 2002).

How the values were obtained:
Design in all cases: scale not given here
ABUTH Velvetleaf [1] = assay: Postemergence herbicidal evaluation, ABUTH; assay type: in vivo, Abutilon theophrasti, Medic.
In short: (§1)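 For this test, compound in an 80/20 acetone/water vehicle with 1.0% seed oil was sprayed over two-week-old seedlings at about 0.006 to 0.400 kg per hectare. Injury was assessed visually two to three weeks on.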

AMBEL Ragweed, Common [2] = assay: Postemergence herbicidal evaluation, AMBEL; assay type: in vivo, Ambrosia artemisifolia, L.
In short: as §1

CASOB Sicklepod [3] = assay: Postemergence herbicidal evaluation, CASOB; assay type: in vivo, Cassia obtusifolia, L.
In short: as §1

[4] = system: CHEAL Lambsquarters, Common; assay: Postemergence herbicidal evaluation, CHEAL; assay type: in vivo, Chenopodium album, L.
In short: as §1

ECHOG Barnyardgrass [5] = assay: Postemergence herbicidal evaluation, ECHOG; assay type: in vivo, Echinochloa crus-galli, (L.) Beau
In short: as §1

GALAP Galium [6] = assay: Postemergence herbicidal evaluation, GALAP; assay type: in vivo, Galium aparine
In short: as §1

[7] = system: IPOHE Morningglory, Ivyleaf; assay: Postemergence herbicidal evaluation, IPOHE; assay type: in vivo, Ipomoea hederacea, (L.) Jacq.
In short: as §1

SETVI Foxtail, Green [8] = assay: Postemergence herbicidal evaluation, SETVI; assay type: in vivo, Setaria viridis, (L.) Beau
In short: as §1

GLXMAW Soybean, Williams [9] = assay: Postemergence herbicidal evaluation, GLXMAW; assay type: in vivo, Glycine max, (L.) Merr. cv Williams
In short: as §1

[10] = system: TRZAWR Wheat, Winter, cv Riband; assay: Postemergence herbicidal evaluation, TRZAWR; assay type: in vivo, Triticum aestivum
In short: as §1

ORYSAT Rice, Tebonnet [11] = assay: Postemergence herbicidal evaluation, ORYSAT; assay type: in vivo, Oryza sativa, (L.)
In short: as §1

ZEAMX Corn, Field [12] = assay: Postemergence herbicidal evaluation, ZEAMX; assay type: in vivo, Zea mays, L. (Sammel-Bezeichnung)
In short: as §1

ABUTH Velvetleaf [13] = assay: Preemergence herbicidal evaluation, ABUTH; assay type: in vivo, Abutilon theophrasti, Medic.; conditions: for ABUTH herbicidal rating: preemergence
In short: (§2)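 Visual ratings were taken four to five weeks after application. Before that, cups sown with seed in potting soil received a spray of compound dissolved in aqueous acetone, equivalent to about 0.013 to 0.800 kg/ha, and stood on greenhouse benches under conventional care.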

AMBEL Ragweed, Common [14] = assay: Preemergence herbicidal evaluation, AMBEL; assay type: in vivo, Ambrosia artemisifolia, L.; conditions: for AMBEL herbicidal rating: preemergence; for Preemergence herbicidal rating, AMBEL: rated four to five weeks after treatment
In short: as §2

CASOB Sicklepod [15] = assay: Preemergence herbicidal evaluation, CASOB; assay type: in vivo, Cassia obtusifolia, L.; conditions: for CASOB herbicidal rating: preemergence; for Preemergence herbicidal rating, CASOB: rated four to five weeks after treatment
In short: as §2

[16] = system: CHEAL Lambsquarters, Common; assay: Preemergence herbicidal evaluation, CHEAL; assay type: in vivo, Chenopodium album, L.; conditions: for CHEAL herbicidal rating: preemergence; for Preemergence herbicidal rating, CHEAL: rated four to five weeks after treatment
In short: as §2

ECHOG Barnyardgrass [17] = assay: Preemergence herbicidal evaluation, ECHOG; assay type: in vivo, Echinochloa crus-galli, (L.) Beau; conditions: for ECHCG herbicidal rating: preemergence; for Preemergence herbicidal rating, ECHCG: rated four to five weeks after treatment
In short: as §2

GALAP Galium [18] = assay: Preemergence herbicidal evaluation, GALAP; assay type: in vivo, Galium aparine; conditions: for GALAP herbicidal rating: preemergence; for Preemergence herbicidal rating, GALAP: rated four to five weeks after treatment
In short: as §2

[19] = system: IPOHE Morningglory, Ivyleaf; assay: Preemergence herbicidal evaluation, IPOHE; assay type: in vivo, Ipomoea hederacea, (L.) Jacq.; conditions: for IPOHE herbicidal rating: preemergence; for Preemergence herbicidal rating, IPOHE: rated four to five weeks after treatment
In short: as §2

SETVI Foxtail, Green [20] = assay: Preemergence herbicidal evaluation, SETVI; assay type: in vivo, Setaria viridis, (L.) Beau; conditions: for SETVI herbicidal rating: preemergence; for Preemergence herbicidal rating, SETVI: rated four to five weeks after treatment
In short: as §2

GLXMAW Soybean, Williams [21] = assay: Preemergence herbicidal evaluation, GLXMAW; assay type: in vivo, Glycine max, (L.) Merr. cv Williams; conditions: for GLXMAW herbicidal rating: preemergence; for Preemergence herbicidal rating, GLXMAW: rated four to five weeks after treatment
In short: as §2

[22] = system: TRZAWR Wheat, Winter, cv Riband; assay: Preemergence herbicidal evaluation, TRZAWR; assay type: in vivo, Triticum aestivum; conditions: for TRZAWR herbicidal rating: preemergence; for Preemergence herbicidal rating, TRZAWR: rated four to five weeks after treatment
In short: as §2

ORYSAT Rice, Tebonnet [23] = assay: Preemergence herbicidal evaluation, ORYSAT; assay type: in vivo, Oryza sativa, (L.); conditions: for ORYSAT herbicidal rating: preemergence; for Preemergence herbicidal rating, ORYSAT: rated four to five weeks after treatment
In short: as §2

ZEAMX Corn, Field [24] = assay: Preemergence herbicidal evaluation, ZEAMX; assay type: in vivo, Zea mays, L. (Sammel-Bezeichnung); conditions: for ZEAMX herbicidal rating: preemergence; for Preemergence herbicidal rating, ZEAMX: rated four to five weeks after treatment
In short: as §2

[25] = 0.016 kg/ha, postemergence spray, rated about two-three weeks after treatment
[26] = 0.032 kg/ha, postemergence spray, rated about two-three weeks after treatment
[27] = 0.062 kg/ha, postemergence spray, rated about two-three weeks after treatment
[28] = rate 0.008 kg/ha, rated two - three weeks after treatment

Cn1c(C(F)(F)F)cc(=O)n(-c2cc3c(cc2F)nnn3-c2ccc(OCC(=O)O)cc2)c1=O [Example 44]
Postemergence herbicidal rating ABUTH (ABUTH Velvetleaf [1]; [25]): 9.0 | Postemergence herbicidal rating ABUTH (ABUTH Velvetleaf [1]; [26]): 7.0 | Postemergence herbicidal rating ABUTH (ABUTH Velvetleaf [1]; [27]): 9.0 | Postemergence herbicidal rating ABUTH (ABUTH Velvetleaf [1]; [28]): 9.0 | Postemergence herbicidal rating AMBEL (AMBEL Ragweed, Common [2]; [25]): 3.0 | Postemergence herbicidal rating AMBEL (AMBEL Ragweed, Common [2]; [26]): 6.0 | Postemergence herbicidal rating AMBEL (AMBEL Ragweed, Common [2]; [27]): 7.0 | Postemergence herbicidal rating AMBEL (AMBEL Ragweed, Common [2]; [28]): 3.0 | Postemergence herbicidal rating CASOB (CASOB Sicklepod [3]; [25]): 0.0 | Postemergence herbicidal rating CASOB (CASOB Sicklepod [3]; [26]): 1.0 | Postemergence herbicidal rating CASOB (CASOB Sicklepod [3]; [27]): 2.0 | Postemergence herbicidal rating CASOB (CASOB Sicklepod [3]; [28]): 0.0 | Postemergence herbicidal rating CHEAL [4, 25]: 7.0 | Postemergence herbicidal rating CHEAL [4, 26]: 6.0 | Postemergence herbicidal rating CHEAL [4, 27]: 9.0 | Postemergence herbicidal rating CHEAL [4, 28]: 5.0 | Postemergence herbicidal rating ECHCG (ECHOG Barnyardgrass [5]; [25]): 4.0 | Postemergence herbicidal rating ECHCG (ECHOG Barnyardgrass [5]; [26]): 6.0 | Postemergence herbicidal rating ECHCG (ECHOG Barnyardgrass [5]; [27]): 6.0 | Postemergence herbicidal rating ECHCG (ECHOG Barnyardgrass [5]; [28]): 3.0 | Postemergence herbicidal rating GALAP (GALAP Galium [6]; [25]): 0.0 | Postemergence herbicidal rating GALAP (GALAP Galium [6]; [26]): 1.0 | Postemergence herbicidal rating GALAP (GALAP Galium [6]; [27]): 2.0 | Postemergence herbicidal rating GALAP (GALAP Galium [6]; [28]): 0.0 | Postemergence herbicidal rating IPOHE [7, 25]: 7.0 | Postemergence herbicidal rating IPOHE [7, 26]: 9.0 | Postemergence herbicidal rating IPOHE [7, 27]: 9.0 | Postemergence herbicidal rating IPOHE [7, 28]: 7.0 | Postemergence herbicidal rating SETVI (SETVI Foxtail, Green [8]; [25]): 4.0 | Postemergence herbicidal rating SETVI (SETVI Foxtail, Green [8]; [26]): 7.0 | Postemergence herbicidal rating SETVI (SETVI Foxtail, Green [8]; [27]): 7.0 | Postemergence herbicidal rating SETVI (SETVI Foxtail, Green [8]; [28]): 4.0 | Postemergence herbicidal rating GLXMAW (GLXMAW Soybean, Williams [9]; [25]): 6.5 | Postemergence herbicidal rating GLXMAW (GLXMAW Soybean, Williams [9]; [26]): 6.5 | Postemergence herbicidal rating GLXMAW (GLXMAW Soybean, Williams [9]; [27]): 7.0 | Postemergence herbicidal rating GLXMAW (GLXMAW Soybean, Williams [9]; [28]): 5.0 | Postemergence herbicidal rating TRZAWR [10, 25]: 4.0 | Postemergence herbicidal rating TRZAWR [10, 26]: 3.5 | Postemergence herbicidal rating TRZAWR [10, 27]: 4.0 | Postemergence herbicidal rating TRZAWR [10, 28]: 3.0 | Postemergence herbicidal rating ORYSAT (ORYSAT Rice, Tebonnet [11]; [25]): 2.5 | Postemergence herbicidal rating ORYSAT (ORYSAT Rice, Tebonnet [11]; [26]): 2.5 | Postemergence herbicidal rating ORYSAT (ORYSAT Rice, Tebonnet [11]; [27]): 3.0 | Postemergence herbicidal rating ORYSAT (ORYSAT Rice, Tebonnet [11]; [28]): 2.5 | Postemergence herbicidal rating ZEAMX (ZEAMX Corn, Field [12]; [25]): 6.5 | Postemergence herbicidal rating ZEAMX (ZEAMX Corn, Field [12]; [26]): 6.5 | Postemergence herbicidal rating ZEAMX (ZEAMX Corn, Field [12]; [27]): 7.0 | Postemergence herbicidal rating ZEAMX (ZEAMX Corn, Field [12]; [28]): 4.5 | ABUTH herbicidal rating (ABUTH Velvetleaf [13]; rate 0.062 kg/ha): 7.0 | ABUTH herbicidal rating (ABUTH Velvetleaf [13]; rate 0.125 kg/ha): 9.0 | Preemergence herbicidal rating, ABUTH (ABUTH Velvetleaf [13]; rate 0.032 kg/ha, rated four to five weeks after treatment): 0.0 | AMBEL herbicidal rating (AMBEL Ragweed, Common [14]; rate 0.062 kg/ha): 0.0 | AMBEL herbicidal rating (AMBEL Ragweed, Common [14]; rate 0.125 kg/ha): 0.0 | Preemergence herbicidal rating, AMBEL (AMBEL Ragweed, Common [14]; rate 0.016 kg/ha): 1.0 | Preemergence herbicidal rating, AMBEL (AMBEL Ragweed, Common [14]; rate 0.032 kg/ha): 0.0 | CASOB herbicidal rating (CASOB Sicklepod [15]; rate 0.062 kg/ha): 2.0 | CASOB herbicidal rating (CASOB Sicklepod [15]; rate 0.125 kg/ha): 0.0 | Preemergence herbicidal rating, CASOB (CASOB Sicklepod [15]; rate 0.016 kg/ha): 0.0 | Preemergence herbicidal rating, CASOB (CASOB Sicklepod [15]; rate 0.032 kg/ha): 1.0 | CHEAL herbicidal rating ([16]; rate 0.062 kg/ha): 9.0 | CHEAL herbicidal rating ([16]; rate 0.125 kg/ha): 9.0 | Preemergence herbicidal rating, CHEAL ([16]; rate 0.016 kg/ha): 9.0 | Preemergence herbicidal rating, CHEAL ([16]; rate 0.032 kg/ha): 9.0 | ECHCG herbicidal rating (ECHOG Barnyardgrass [17]; rate 0.062 kg/ha): 0.0 | ECHCG herbicidal rating (ECHOG Barnyardgrass [17]; rate 0.125 kg/ha): 0.0 | Preemergence herbicidal rating, ECHCG (ECHOG Barnyardgrass [17]; rate 0.016 kg/ha): 0.0 | Preemergence herbicidal rating, ECHCG (ECHOG Barnyardgrass [17]; rate 0.032 kg/ha): 0.0 | GALAP herbicidal rating (GALAP Galium [18]; rate 0.062 kg/ha): 4.0 | GALAP herbicidal rating (GALAP Galium [18]; rate 0.125 kg/ha): 7.0 | Preemergence herbicidal rating, GALAP (GALAP Galium [18]; rate 0.016 kg/ha): 3.0 | Preemergence herbicidal rating, GALAP (GALAP Galium [18]; rate 0.032 kg/ha): 5.0 | IPOHE herbicidal rating ([19]; rate 0.062 kg/ha): 0.0 | IPOHE herbicidal rating ([19]; rate 0.125 kg/ha): 2.0 | Preemergence herbicidal rating, IPOHE ([19]; rate 0.016 kg/ha): 0.0 | Preemergence herbicidal rating, IPOHE ([19]; rate 0.032 kg/ha): 0.0 | SETVI herbicidal rating (SETVI Foxtail, Green [20]; rate 0.062 kg/ha): 3.0 | SETVI herbicidal rating (SETVI Foxtail, Green [20]; rate 0.125 kg/ha): 9.0 | Preemergence herbicidal rating, SETVI (SETVI Foxtail, Green [20]; rate 0.016 kg/ha): 0.0 | Preemergence herbicidal rating, SETVI (SETVI Foxtail, Green [20]; rate 0.032 kg/ha): 0.0 | GLXMAW herbicidal rating (GLXMAW Soybean, Williams [21]; rate 0.062 kg/ha): 0.0 | GLXMAW herbicidal rating (GLXMAW Soybean, Williams [21]; rate 0.125 kg/ha): 0.0 | Preemergence herbicidal rating, GLXMAW (GLXMAW Soybean, Williams [21]; rate 0.016 kg/ha): 0.0 | Preemergence herbicidal rating, GLXMAW (GLXMAW Soybean, Williams [21]; rate 0.032 kg/ha): 0.0 | TRZAWR herbicidal rating ([22]; rate 0.062 kg/ha): 1.0 | TRZAWR herbicidal rating ([22]; rate 0.125 kg/ha): 1.0 | Preemergence herbicidal rating, TRZAWR ([22]; rate 0.016 kg/ha): 0.0 | Preemergence herbicidal rating, TRZAWR ([22]; rate 0.032 kg/ha): 0.0 | ORYSAT herbicidal rating (ORYSAT Rice, Tebonnet [23]; rate 0.062 kg/ha): 5.0 | ORYSAT herbicidal rating (ORYSAT Rice, Tebonnet [23]; rate 0.125 kg/ha): 5.0 | Preemergence herbicidal rating, ORYSAT (ORYSAT Rice, Tebonnet [23]; rate 0.016 kg/ha): 0.0 | Preemergence herbicidal rating, ORYSAT (ORYSAT Rice, Tebonnet [23]; rate 0.032 kg/ha): 0.0 | ZEAMX herbicidal rating (ZEAMX Corn, Field [24]; rate 0.062 kg/ha): 1.0 | ZEAMX herbicidal rating (ZEAMX Corn, Field [24]; rate 0.125 kg/ha): 1.0 | Preemergence herbicidal rating, ZEAMX (ZEAMX Corn, Field [24]; rate 0.016 kg/ha): 0.0 | Preemergence herbicidal rating, ZEAMX (ZEAMX Corn, Field [24]; rate 0.032 kg/ha): 0.0
